Assay results from patent US12048317B2, “Astaxanthin-containing condiment and a preparation method therefor” (South China University of Technology, priority 2018, dated 2024).

Legend:
Assay type in all cases: physicochemical
[1] = Encapsulation rate of the microcapsule powder (total pigment vs pigment on the surface); settings: Example 4 microcapsules
Experimental: (§1) This example selected the following optimal proportion: Supernatant (V, mL):gelatin (W, g):porous starch (W, g)=400:15:6 (core material (W, g):wall material (W, g)=3.95:21); the microencapsulation temperature was 40° C., and the microencapsulation time was 2 h. The encapsulation rate was calculated by detecting the total amount of pigment in the microcapsule powder and the amount of pigment on the surface (refer to Gomez-Estaca J. Food Hydrocolloids, 2016, 61:155-162). The amount of pigment on the surface was obtained by directly adding acetone for extraction. The total amount of pigment in the microcapsule powder was obtained as follows: dissolving the microcapsule powder in distilled water, shaking and then adding acetone thereto, mixing uniformly and then centrifuging, using petroleum ether to back-extract the pigment, and taking the upper layer of pigment-petroleum ether to measure the absorbance A with a spectrophotometer; if the pigment in the lower layer of acetone was not extracted completely, petroleum ether was added repeatedly until the organic solvent in the lower layer was colorless. Drug-loading rate refers to the amount of pigment contained in each gram of the microcapsule powder.

[2] = Concentration of astaxanthin in the aqueous supernatant after glass-bead wall breaking of P. rhodozyma (spectrophotometer); settings: water, 1 mm glass beads 500 g/L, 22° C., 150 rpm
Experimental: Adding P. rhodozyma to 20 mL of water to obtain yeast suspensions with concentrations of 20 g/L, 50 g/L and 100 g/L (dry weight), adding glass beads with a particle size of 1 mm to the yeast suspensions to make the content of the glass beads in the yeast suspensions 500 g/L, and then shaking to break walls in a shaker at 22° C. at a stirring speed of 150 rpm for 48 h. After breaking the wall, centrifuging at 10000 rpm for 10 min, and then collecting the precipitate and supernatant. Extracting astaxanthin in the supernatant with acetone and back-extracting it with petroleum ether, extracting the astaxanthin in the precipitate with acetone, and then using a spectrophotometer to detect the content of astaxanthin in the supernatant and precipitate. Using the amount of astaxanthin extracted by the acid-heat treatment method as a control, i.e., regarding the amount of astaxanthin extracted by the acid-heat treatment method by default as the total amount of astaxanthin for the calculation of the astaxanthin extraction rate.
Adding P. rhodozyma to 20 mL of water to obtain a yeast suspension with a concentration of 20 g/L (dry weight), adding glass beads with a particle size of 1 mm to the yeast suspension to make the content of the glass beads in the yeast suspension 500 g/L, and then shaking to break walls in a shaker at 22° C. at a stirring speed of 150 rpm for 6 h, 24 h and 48 h, respectively. After breaking the wall, centrifuging at 10000 rpm for 10 min, and then collecting the precipitate and supernatant. Extracting astaxanthin in the supernatant with acetone and back-extracting it with petroleum ether, extracting the astaxanthin in the precipitate with acetone, and then using a spectrophotometer to detect the content of astaxanthin in the supernatant and precipitate. Using the amount of astaxanthin extracted by the acid-heat treatment method as a control, i.e., regarding the amount of astaxanthin extracted by the acid-heat treatment method by default as the total amount of astaxanthin for the calculation of the astaxanthin extraction rate.

[3] = Drug-loading rate (amount of pigment contained in each gram of the microcapsule powder); settings: Example 4 microcapsules
Experimental: as §1

For `CC1=C(/C=C/C(C)=C/C=C/C(C)=C/C=C/C=C(C)/C=C/C=C(C)/C=C/C2=C(C)C(=O)[C@@H](O)CC2(C)C)C(C)(C)C[C@H](O)C1=O` [astaxanthin], the “encapsulation rate of astaxanthin” value ([1]; concentration of yeast 20 g/L) was 87.8%, the “encapsulation rate of astaxanthin” value ([1]; concentration of yeast 50 g/L) was 78.69% and the “encapsulation rate of astaxanthin” value ([1]; concentration of yeast 100 g/L) was 75.62%. For the same compound, the “concentration of astaxanthin in the supernatant after the wall breaking” value (from here on “concentration of astaxanthin”) ([2]; P. rhodozyma 20 g/L, 6 h) was 93.72 µg/mL, the “concentration of astaxanthin” value ([2]; P. rhodozyma 20 g/L, 24 h) was 306.43 µg/mL and the “concentration of astaxanthin” value ([2]; P. rhodozyma 20 g/L, 48 h) was 459.57 µg/mL. The “concentration of astaxanthin” value ([2]; P. rhodozyma 50 g/L, 48 h) was 843.06 µg/mL, the “concentration of astaxanthin” value ([2]; P. rhodozyma 100 g/L, 48 h) was 1043.17 µg/mL and the “drug-loading rate of astaxanthin” value ([3]; concentration of yeast 20 g/L) was 3.45 mg/g. The “drug-loading rate of astaxanthin” value ([3]; concentration of yeast 50 g/L) was 6.79 mg/g and the “drug-loading rate of astaxanthin” value ([3]; concentration of yeast 100 g/L) was 10.42 mg/g.
